Assay results reported in article PMC9463526 (Journal of Pharmaceutical Analysis, 2022).
Like-named read-outs stand apart in the source and are kept apart here.

Experiments:
[1] = Equilibrium dialysis, fraction unbound in patient brain tumor tissue; type: in vitro ADME; conditions: human, five patients, 16 h equilibrium dialysis
Protocol: (§1) Equilibrium dialysis was employed to measure the fraction unbound of analytes in plasma, brain, and brain tumor tissue homogenates using 96-well DispoEquilibrium Dialyzer plates with a 10 kDa cut-off regenerated cellulose membrane. Dialysis was performed using 180 μL of human plasma or tissue homogenate against an equal volume of PBS (pH 7.4) in a dual-plate rotator (Harvard Apparatus, Holliston, MA, USA). Equilibrium time was initially optimized by analyzing samples after 2, 4, 6, 8, 16, and 24 h of dialysis at concentrations of 20 and 200 nM in human plasma and brain homogenate. The dialysates were collected and processed as described in Sections 2.3.2 and 2.3.3. The recovery of analytes was calculated as the ratio of analyte concentration after dialysis (sum of concentrations found in PBS and matrix fractions) to the total concentration to ensure the reliability and reproducibility of the assay. The experiments were repeated at least three times, and each sample in triplicate and average fraction unbound values were determined.
(§2) The fraction unbound in plasma (fu, plasma) and tissue homogenate (fu, hom) was evaluated as the analyte concentration ratio of post-dialysis PBS (cu) to post-dialysis plasma (cp, Eq. (1)) or homogenate (chom, Eq. (2)).(1) fu,plasma =cu/cp (2) fu,hom =cu/chom
The fraction unbound in the actual tissue (fu, tissue) was obtained by incorporating the unbound fraction in the tissue homogenate (fu, hom) and the dilution factor (Df) into Eq. (3).(3) fu,tissue = fu,hom/[Df - (Df - 1)fu,hom]
(§3) Unbound drug levels in the actual plasma and brain tumor tissue were measured using dialysis for 16 h to reach equilibrium. The mean of fraction unbound values determined in five patient samples was calculated.
(§4) The validated bioanalytical method was employed to investigate analytes pharmacokinetics in the plasma, brain tumor, and CSF in GBM patients (ClinicalTrials.gov identifier: NCT04391595). The protocol was reviewed and approved by the Institutional Review Board of the Barrow Neurological Institute, St. Joseph's Hospital and Medical Center (Phoenix, AZ, USA). All patients enrolled in the trial provided written informed consent. […] Blood, CSF, and GBM tissue (including gadolinium-contrast enhancing and non-enhancing regions) samples were obtained intra-operatively from each patient on the […] on the planned operation day. Blood was centrifuged at 4 °C and 3,000 r/min for 10 min; plasma was subsequently collected. Brain tumors were resected 7–9 h after the last dose was administered. Once resected, the tissue samples were rinsed with PBS, paper dried, and freshly frozen in liquid nitrogen. The samples were then stored at −80 °C in a freezer for later analysis.

[2] = Levels in intraoperatively collected CSF of GBM patients; type: in vivo; conditions: human, po, five GBM patients, oral LY3214996 200 mg once daily and abemaciclib 150 mg twice daily for 5 days, intraoperative CSF
Protocol: Blank brain and clinical brain tumor tissue homogenates were prepared at 1:9 (m/V) ratio with PBS. The samples were homogenized at a speed of 6.00 m/s for 40 s for three cycles using a Bead Ruptor Elite homogenizer (Omni International, Kennesaw, GA, USA). Plasma was used as a surrogate matrix when preparing calibration curves for brain and brain tumor homogenates and CSF as well as for the PBS fraction after sample dialysis. To minimize matrix differences, all plasma samples were spiked with PBS, while all non-plasma samples were spiked with plasma. Extraction of the analyte and IS was facilitated by protein precipitation using methanol-containing IS precipitation solution. Samples (70 μL) spiked with PBS or plasma were precipitated using 400 μL of IS precipitation solution. After centrifugation at 12,000 r/min for 10 min at 4 °C, the supernatant was transferred for LC-MS/MS analysis.
as §4

[3] = Analyte stability in human plasma; type: physicochemical; conditions: for Freeze-thaw stability, Accuracy / Freeze-thaw stability, Mean concentration / Freeze-thaw stability, Difference: 3 cycles; for Freeze-thaw stability, Difference / Benchtop stability, Difference / Processed sample stability, Difference / Autosampler stability (5 °C), Difference / Long-term stability (−20 °C), Difference: vs freshly processed QC; for Benchtop stability, Accuracy / Benchtop stability, Mean concentration / Benchtop stability, Difference: 19 h; for Processed sample stability, Accuracy / Processed sample stability, Mean concentration / Processed sample stability, Difference: 23 h; for Autosampler stability (5 °C), Accuracy / Autosampler stability (5 °C), Mean concentration / Autosampler stability (5 °C), Difference: 112 h; for Long-term stability (−20 °C), Accuracy / Long-term stability (−20 °C), Mean concentration / Long-term stability (−20 °C), Difference: 27 days
Protocol: (§5) The stability of the analytes was studied under various storage and processing conditions. […] Short- and long-term stability studies of all analytes were conducted in human blank plasma and brain homogenate under several storage conditions. Analyte stability in biological matrices was analyzed using freshly prepared calibration standards and QC samples. The percentage difference between the stability and freshly processed QC was also assessed. Re-injection reproducibility was evaluated within the sample stability period in the autosampler. Analytes were considered stable if the accuracy at each level was ±15.0% of the nominal value. Additionally, the difference from corresponding comparison QC samples must be within ±15.0%.

[4] = Equilibrium dialysis, fraction unbound in plasma; type: in vitro ADME, human; conditions: for fraction unbound at 16 h: pH 7.4, 16 h equilibrium dialysis
Protocol: as §1, §2, §3

[5] = Analyte stability in brain homogenate; type: physicochemical, human; conditions: for Freeze-thaw stability, Accuracy / Freeze-thaw stability, Mean concentration / Freeze-thaw stability, Difference: 3 cycles; for Freeze-thaw stability, Difference / Benchtop stability, Difference / Processed sample stability, Difference / Autosampler stability (5 °C), Difference / Long-term stability (−20 °C), Difference: vs freshly processed QC; for Benchtop stability, Accuracy / Benchtop stability, Mean concentration / Benchtop stability, Difference: 6 h; for Processed sample stability, Accuracy / Processed sample stability, Mean concentration / Processed sample stability, Difference: 22 h; for Autosampler stability (5 °C), Accuracy / Autosampler stability (5 °C), Mean concentration / Autosampler stability (5 °C), Difference: 96 h
Protocol: as §5

## Cn1nccc1Nc1nccc(-c2cc3c(s2)C(C)(C)N(CCN2CCOCC2)C3=O)n1 [LY3214996]
[1]; pH 7.4, gadolinium contrast enhancing GBM region, read-out: Fraction unbound (fu), GBM (E)
  fraction unbound at 16 h: 0.109
[1]; pH 7.4, gadolinium contrast non-enhancing GBM region, read-out: Fraction unbound (fu), GBM (NE)
  fraction unbound at 16 h: 0.06
[2]; read-out: Level in CSF (range)
  concentration at 6 day (intra-operative): 49.7 to 118 nM
[2]; read-out: Median level in CSF
  concentration at 6 day (intra-operative): 95.5 nM
[3]; HQC 400.0 nM
  Freeze-thaw stability, Accuracy: 100.6%
  Freeze-thaw stability, Mean concentration: 402.5 nM
  Freeze-thaw stability, Difference: 3.2%
  Benchtop stability, Accuracy: 102.3%
  Benchtop stability, Mean concentration: 409.3 nM
  Benchtop stability, Difference: 2.8%
  Processed sample stability, Accuracy: 97.7%
  Processed sample stability, Mean concentration: 390.7 nM
  Processed sample stability, Difference: 2.2%
  Autosampler stability (5 °C), Accuracy: 95.4%
  Autosampler stability (5 °C), Mean concentration: 381.8 nM
  Autosampler stability (5 °C), Difference: 1.5%
  Long-term stability (−20 °C), Accuracy: 104.5%
  Long-term stability (−20 °C), Mean concentration: 418.1 nM
  Long-term stability (−20 °C), Difference: 3.4%
[3]; LQC 0.6 nM
  Freeze-thaw stability, Accuracy: 101.0%
  Freeze-thaw stability, Mean concentration: 0.606 nM
  Freeze-thaw stability, Difference: 5.3%
  Benchtop stability, Accuracy: 97.7%
  Benchtop stability, Mean concentration: 0.586 nM
  Benchtop stability, Difference: 3.2%
  Processed sample stability, Accuracy: 91.1%
  Processed sample stability, Mean concentration: 0.547 nM
  Processed sample stability, Difference: −3.4%
  Autosampler stability (5 °C), Accuracy: 92.5%
  Autosampler stability (5 °C), Mean concentration: 0.555 nM
  Autosampler stability (5 °C), Difference: 3.1%
  Long-term stability (−20 °C), Accuracy: 101.5%
  Long-term stability (−20 °C), Mean concentration: 0.609 nM
  Long-term stability (−20 °C), Difference: −2.2%
[4]; human, plasma of five GBM patients, read-out: Fraction unbound (fu), Plasma (patients)
  fraction unbound at 16 h: 0.406
[4]; pooled human plasma spiked at 20 and 200 nM, read-out: Fraction unbound (fu), Plasma (pooled)
  fraction unbound at 16 h: 0.372
[4]; pooled human plasma
  Plasma protein binding (in words): modest plasma protein binding
[5]; HQC 400.0 nM
  Freeze-thaw stability, Accuracy: 103.2%
  Freeze-thaw stability, Mean concentration: 412.9 nM
  Freeze-thaw stability, Difference: 1.1%
  Benchtop stability, Accuracy: 101.7%
  Benchtop stability, Mean concentration: 406.7 nM
  Benchtop stability, Difference: −1.5%
  Processed sample stability, Accuracy: 102.3%
  Processed sample stability, Mean concentration: 409.3 nM
  Processed sample stability, Difference: −0.9%
  Autosampler stability (5 °C), Accuracy: 105.2%
  Autosampler stability (5 °C), Mean concentration: 420.9 nM
  Autosampler stability (5 °C), Difference: 3.3%
[5]; LQC 0.6 nM
  Freeze-thaw stability, Accuracy: 101.4%
  Freeze-thaw stability, Mean concentration: 0.608 nM
  Freeze-thaw stability, Difference: −7.9%
  Benchtop stability, Accuracy: 110.2%
  Benchtop stability, Mean concentration: 0.661 nM
  Benchtop stability, Difference: 0.2%
  Processed sample stability, Accuracy: 112.3%
  Processed sample stability, Mean concentration: 0.674 nM
  Processed sample stability, Difference: 2.1%
  Autosampler stability (5 °C), Accuracy: 111.2%
  Autosampler stability (5 °C), Mean concentration: 0.667 nM
  Autosampler stability (5 °C), Difference: 4.4%
[5]; 39 days, HQC 400.0 nM
  Long-term stability (−20 °C), Mean concentration: 422.7 nM
  Long-term stability (−20 °C), Difference: 3.5%
[5]; 39 days, LQC 0.6 nM
  Long-term stability (−20 °C), Accuracy: 103.6%
  Long-term stability (−20 °C), Mean concentration: 0.622 nM
  Long-term stability (−20 °C), Difference: −5.9%
